Measured values reported in PMC7782499, “Progerinin, an optimized progerin-lamin A binding inhibitor, ameliorates premature senescence phenotypes of Hutchinson-Gilford progeria syndrome” (Communications Biology, 2021).
“And” between values parts separate entries of the source, which are not always exact repeats. Equal entries are not always repeated.

Biological target: T1, progerin (Homo sapiens, UniProt P02545)
T1 sequence (P02545 1-614 isoform P02545-6): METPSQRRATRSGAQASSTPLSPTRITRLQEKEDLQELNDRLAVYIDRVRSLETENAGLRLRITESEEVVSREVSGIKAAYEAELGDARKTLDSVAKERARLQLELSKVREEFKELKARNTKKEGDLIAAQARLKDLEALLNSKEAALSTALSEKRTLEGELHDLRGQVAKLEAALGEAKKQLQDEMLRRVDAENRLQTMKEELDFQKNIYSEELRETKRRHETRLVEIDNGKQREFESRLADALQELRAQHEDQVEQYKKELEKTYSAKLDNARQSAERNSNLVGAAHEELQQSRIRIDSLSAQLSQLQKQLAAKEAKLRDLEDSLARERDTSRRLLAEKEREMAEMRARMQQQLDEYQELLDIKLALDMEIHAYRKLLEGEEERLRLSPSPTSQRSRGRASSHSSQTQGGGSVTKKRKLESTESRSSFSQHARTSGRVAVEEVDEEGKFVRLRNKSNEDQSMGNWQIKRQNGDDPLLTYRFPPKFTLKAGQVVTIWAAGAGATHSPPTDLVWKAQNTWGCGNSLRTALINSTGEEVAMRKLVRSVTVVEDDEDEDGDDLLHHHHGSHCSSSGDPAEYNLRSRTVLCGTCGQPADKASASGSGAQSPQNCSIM
Test: Progerin expression in HGPS patient cells (western blot, immunostaining)
Assay type: cell-based
Design: host or cells: HGPS patient fibroblasts
Conditions: for Progerin intensity after treatment with chemicals, Ave: average; for Progerin intensity after treatment with chemicals: single replicates
Description: Fig. 1 SLC-D011 ameliorates premature aging features of HGPS. A. HEK293 cells were transiently transfected with expression vector encoding wild-type lamin A (WT-LA), lamin A-C661A (LA-C661A), progerin, or progerin-C611A. LA-C661A or progerin-C611A with point mutation in CaaX motif was predicted to be lack of farnesylation, […] that of authentic WT-LA or progerin. GFP-conjugated empty expression vector was used as a negative control. Cells were visualized at 24 h after transfection. B Transient transfection of HEK293 cells with expression vector encoding progerin or progerin-G611A leads to reduced expression of H3K9me3 (n = 3 independent experiments; two-tailed Student’s t test). C. JH4 derivatives (JH010 and SLC-D011(D011)) inhibit lamin A and progerin interaction. For binding inhibition assay, bead-conjugated lamin A (GST-LA) was incubated with HEK293 cells, transiently transfected with GFP-progerin (PG), and treated with indicated chemicals. Actin was used as a loading control. PPT, co-precipitated materials with recombinant proteins; Sup supernatant. 5 μM of each chemical was used for binding assay. […] H3K9me3 reduction is a well-known marker for premature aged cells. Thus, H3K9me3 expression was evaluated by immunostaining. […] E SLC-D011 obviously suppresses progerin expression. […] F SLC-D011 reduces the expression of progerin in other HGPS cells (AG11513 and AG11498, Coriell Cell Repositories). […] G JH4, JH010, and SLC-D011 promote cell proliferation. Cell viability was determined by MTT assay after incubation with chemicals for 7 days (n = 3 independent experiments; two-tailed Student’s t test). H JH4, JH010, and SLC-D011 show similar activity for ameliorating nuclear deformation. After incubation with chemicals for 7 days, cells were stained with progerin and H3K9me3 antibodies (n = 3 independent experiment; two-tailed Student’s t test), **p < 0.001. Data are reported as mean ± SD. “Con” means Dimethyl sulfoxide (DMSO)-treated control. The data are normalized to DMSO-treated cells.
Protein was extracted from cells using a radioimmunoprecipitation assay (RIPA) buffer (50 mM Tris-Cl, pH 7.5, 150 mM NaCl, 1% NP-40, 0.1% SDS, and 10% sodium deoxycholate). Samples were separated by sodium dodecyl sulfate-polyacrylamide gel electrophoresis (SDS-PAGE) and transferred to polyvinylidene difluoride (PVDF) membranes. Blotted membranes were blocked with 3% skimmed milk in TBS-T buffer (20 mM Tris pH 7.6, 150 mM NaCl, and 0.05% Tween 20) for 1 h followed by incubation with specific primary antibodies. Horseradish peroxidase (HRP)-conjugated goat anti-mouse, goat anti-rabbit, and mouse anti-goat IgG antibodies (Pierce, Thermo Fisher Scientific, Inc., Rockford, IL, USA) were used as secondary antibodies. Peroxidase activity was detected by chemiluminescence using an ECL kit (Intron, Seoul, Korea) following the manufacturer’s instructions. Bands were quantified using Image J software (National Institute of Health, NIH).
Cells were cultured on coverslips, washed with PBS, fixed with 4% paraformaldehyde (PFA) for 30 min at RT, and then permeabilized with 0.2% Triton X-100 at RT for 5 min. After treatment with blocking solution (anti-Human antibody diluted 1:400 in PBS) for 1 h, cells were incubated with anti-lamin A/C (1:400), anti-progerin (1:100), Ki67 (1:200), and anti-H3K9me3 (1:200) in blocking buffer overnight at 4 °C. Finally, cells were incubated with fluorescein isothiocyanate and rhodamine-conjugated secondary antibodies at 4 °C for 7 h. Nuclei were stained with DAPI (4, 6-diamidino-2-phenylindole) at RT for 10 min. After cells were washed three times with PBS, coverslips were mounted with mounting solution (H-5501; Vector Laboratories, Burlingame, CA, USA). Immunofluorescence signal was detected with a fluorescence microscopy (Zeiss and Logos).
Fig. S7. Therapeutic effect of SLC-D011 at a low concentration. […]
AG11513; B) dose-dependently. […]

CC1(C)Oc2cc3oc(=O)ccc3cc2C[C@@H]1OC/C=C/c1ccccc1 [SLC-D011]
Progerin intensity after treatment with SLC-D011, Ave (AG03198, 10nM, average (Fig S7C)): 7.117 AU | Progerin intensity after treatment with SLC-D011 (AG03198, 10nM, single replicates (Fig S7C)): 5.32 AU and 7.51 AU and 8.52 AU | Progerin intensity after treatment with SLC-D011, Ave (AG03198, 50nM, average (Fig S7C)): 3.183 AU | Progerin intensity after treatment with SLC-D011 (AG03198, 50nM, single replicates (Fig S7C)): 2.38 AU and 3.11 AU and 4.06 AU | Progerin intensity after treatment with SLC-D011, Ave (AG03198, 100nM, average (Fig S7C)): 1.91 AU | Progerin intensity after treatment with SLC-D011 (AG03198, 100nM, single replicates (Fig S7C)): 2.22 AU and 1.69 AU and 1.82 AU | Progerin intensity after treatment with SLC-D011, Ave (AG03198, 500nM, average (Fig S7C)): 1.503 AU | Progerin intensity after treatment with SLC-D011 (AG03198, 500nM, single replicates (Fig S7C)): 2.58 AU and 0.9 AU and 1.03 AU | Progerin intensity after treatment with SLC-D011, Ave (AG03198, 1μM, average (Fig S7C)): 0.68 AU | Progerin intensity after treatment with SLC-D011 (AG03198, 1μM, single replicates (Fig S7C)): 1.32 AU and 0.45 AU and 0.27 AU | Progerin intensity after treatment with chemicals, Ave (AG03198, 2μM): 1.893 AU | Progerin intensity after treatment with SLC-D011, Ave (AG03198, 2μM, average (Fig S7C)): 0.14 AU | Progerin intensity after treatment with chemicals (AG03198, 2μM): 1.798 AU and 1.397 AU and 2.484 AU | Progerin intensity after treatment with SLC-D011 (AG03198, 2μM, single replicates (Fig S7C)): 0 AU and 0.23 AU and 0.19 AU | Progerin intensity after treatment with chemicals, Ave (AG03198, 5μM): 0.1657 AU | Progerin intensity after treatment with SLC-D011, Ave (AG03198, 5μM, average (Fig S7C)): 0.02333 AU | Progerin intensity after treatment with chemicals (AG03198, 5μM): 0 AU and 0.123 AU and 0.3741 AU | Progerin intensity after treatment with SLC-D011 (AG03198, 5μM, single replicates (Fig S7C)): 0 AU (2×) and 0.07 AU | Progerin intensity after treatment with SLC-D011, Ave (AG11498, 10nM, average (Fig S7C)): 6.647 AU | Progerin intensity after treatment with SLC-D011 (AG11498, 10nM, single replicates (Fig S7C)): 6.56 AU and 6.24 AU and 7.14 AU | Progerin intensity after treatment with SLC-D011, Ave (AG11498, 50nM, average (Fig S7C)): 4.11 AU | Progerin intensity after treatment with SLC-D011 (AG11498, 50nM, single replicates (Fig S7C)): 2.38 AU and 3.5 AU and 6.45 AU | Progerin intensity after treatment with SLC-D011, Ave (AG11498, 100nM, average (Fig S7C)): 1.733 AU | Progerin intensity after treatment with SLC-D011 (AG11498, 100nM, single replicates (Fig S7C)): 0 AU and 1.5 AU and 3.7 AU | Progerin intensity after treatment with SLC-D011, Ave (AG11498, 500nM, average (Fig S7C)): 0.9 AU | Progerin intensity after treatment with SLC-D011 (AG11498, 500nM, single replicates (Fig S7C)): 0 AU and 0.6 AU and 2.1 AU | Progerin intensity after treatment with SLC-D011, Ave (AG11498, 1μM, average (Fig S7C)): 0.4533 AU | Progerin intensity after treatment with SLC-D011 (AG11498, 1μM, single replicates (Fig S7C)): 0 AU (2×) and 1.36 AU | Progerin intensity after treatment with SLC-D011, Ave (AG11498, 2μM, average (Fig S7C)): 0.3333 AU | Progerin intensity after treatment with SLC-D011 (AG11498, 2μM, single replicates (Fig S7C)): 0 AU (2×) and 1 AU | Progerin intensity after treatment with SLC-D011, Ave (AG11498, 5μM, average (Fig S7C)): 0.25 AU | Progerin intensity after treatment with SLC-D011 (AG11498, 5μM, single replicates (Fig S7C)): 0 AU (2×) and 0.75 AU | Progerin intensity after treatment with SLC-D011, Ave (AG11498, average (Fig S3H)): 1.892 AU | Progerin intensity after treatment with SLC-D011 (AG11498, single replicates (Fig S3H)): 5.217 AU and 0.1632 AU and 0.2958 AU | Progerin intensity after treatment with SLC-D011, Ave (AG11513, 10nM, average (Fig S7C)): 5.123 AU | Progerin intensity after treatment with SLC-D011 (AG11513, 10nM, single replicates (Fig S7C)): 2.96 AU and 6.48 AU and 5.93 AU | Progerin intensity after treatment with SLC-D011, Ave (AG11513, 50nM, average (Fig S7C)): 3.793 AU | Progerin intensity after treatment with SLC-D011 (AG11513, 50nM, single replicates (Fig S7C)): 3.06 AU and 4.3 AU and 4.02 AU | Progerin intensity after treatment with SLC-D011, Ave (AG11513, 100nM, average (Fig S7C)): 2.487 AU | Progerin intensity after treatment with SLC-D011 (AG11513, 100nM, single replicates (Fig S7C)): 2.07 AU and 2.27 AU and 3.12 AU | Progerin intensity after treatment with SLC-D011, Ave (AG11513, 500nM, average (Fig S7C)): 1.19 AU | Progerin intensity after treatment with SLC-D011 (AG11513, 500nM, single replicates (Fig S7C)): 0.81 AU and 1.08 AU and 1.68 AU | Progerin intensity after treatment with SLC-D011, Ave (AG11513, 1μM, average (Fig S7C)): 0.59 AU | Progerin intensity after treatment with SLC-D011 (AG11513, 1μM, single replicates (Fig S7C)): 0.55 AU and 0.6 AU and 0.62 AU | Progerin intensity after treatment with SLC-D011, Ave (AG11513, 2μM, average (Fig S7C)): 0.2167 AU | Progerin intensity after treatment with SLC-D011 (AG11513, 2μM, single replicates (Fig S7C)): 0.27 AU and 0.22 AU and 0.16 AU | Progerin intensity after treatment with SLC-D011, Ave (AG11513, 5μM, average (Fig S7C)): 0.09 AU | Progerin intensity after treatment with SLC-D011 (AG11513, 5μM, single replicates (Fig S7C)): 0.2 AU and 0 AU and 0.07 AU | Progerin intensity after treatment with SLC-D011, Ave (AG11513, average (Fig S3H)): 1.455 AU | Progerin intensity after treatment with SLC-D011 (AG11513, single replicates (Fig S3H)): 1.494 AU and 1.1106 AU and 1.761 AU | Concentration enough for eliminating progerin (HGPS cells): 100 nM | Effect on progerin expression (HGPS cells): reduce progerin expression | Progerin intensity after treatment with SLC-D011, Ave (N9, average (Fig S3H)): 0 AU | Progerin intensity after treatment with SLC-D011 (N9, single replicates (Fig S3H)): 0 AU

CC1(C)Oc2cc3oc(=O)ccc3cc2CC1OC(=O)C=Cc1cccnc1 (stereo not shown) [JH4]
Progerin intensity after treatment with chemicals, Ave (AG03198, 2μM): 15.1057 AU | Progerin intensity after treatment with chemicals (AG03198, 2μM): 13.2274 AU and 13.4377 AU and 18.652 AU | Progerin intensity after treatment with chemicals, Ave (AG03198, 5μM): 4.247 AU | Progerin intensity after treatment with chemicals (AG03198, 5μM): 1.2854 AU and 1.491 AU and 9.966 AU
